# Numbered stars: 1 amine (or outer) side, 2 acyl side, 3 side chain; on linkers, the order of the positions; unused ones are H or OH. Square brackets hold non-standard residues; d marks the D form. Peptide text beside a SMILES is read from it. * marks the point of attachment. Bip = N[C@@H](Cc1ccc(-c2ccccc2)cc1)C(=O)O; Hydrocinnamoyl = O=C(CCc1ccccc1)*; NHPhenethyl = c1ccc(CCN*)cc1; Cbz = O=C(OCc1ccccc1)*; CO = O=C([*:1])[*:2]; NHBn = c1ccc(CN*)cc1; Bn = c1ccc(C*)cc1
# Target: T1, rat brain farnesyl protein transferase (PFT) (Rattus norvegicus, UniProt Q02293+Q04631)
# T1 construct: 40-fold purified rat brain farnesyl protein transferase; from tissue; host or cells: rat brain
# T1 sequence (Q02293 whole entry, one chain of several): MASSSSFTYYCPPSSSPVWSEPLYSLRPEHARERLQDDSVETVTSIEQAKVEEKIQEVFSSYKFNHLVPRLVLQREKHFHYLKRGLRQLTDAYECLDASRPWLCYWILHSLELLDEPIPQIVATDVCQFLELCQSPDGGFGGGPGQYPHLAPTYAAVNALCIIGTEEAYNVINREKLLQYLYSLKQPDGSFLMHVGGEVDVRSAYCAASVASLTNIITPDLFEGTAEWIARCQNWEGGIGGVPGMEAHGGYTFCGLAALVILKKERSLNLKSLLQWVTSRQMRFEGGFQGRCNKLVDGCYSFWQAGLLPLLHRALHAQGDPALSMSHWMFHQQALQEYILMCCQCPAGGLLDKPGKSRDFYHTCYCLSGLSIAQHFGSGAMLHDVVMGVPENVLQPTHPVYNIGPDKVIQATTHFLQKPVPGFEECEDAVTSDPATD
# Test: PFT inhibitory activity assay (radiolabeled farnesyl pyrophosphate, biotinyl peptide, streptavidin beads)
# Type: biochemical
# Conditions: 40-fold purified rat brain enzyme; 0.12 μM [3H]FPP, 0.1 μM biotinyl-Ahe-Tyr-Lys-Cys-Val-Ile-Met; 37° C., 30 minutes; read-out: IC50 (μM) against PFT
# Procedure: The PFT inhibitory activity of compounds of Formula I was assayed in 30 mM potassium phosphate buffer, pH 7.4, containing 7 mM DTT, 1.2 mM MgCl2, 0.1 mM leupeptin, 0.1 mM pepstatin and 0.2 mM phenylmethylsulfonyl fluoride. Assays were performed in 96 well plates (Wallec) and employed solutions composed of varying concentrations of a compound of Formula I in 100% DMSO. Upon addition of both substrates, radiolabeled farnesyl pyrophosphate ([1-^3 H], specific activity 15--30 Ci/mmol, final concentration 0.12 μM) and (biotinyl)-Ahe-Tyr-Lys-Cys-Val-Ile-Met peptide (final concentration 0.1 μM), the enzyme reaction was started by addition of 40-fold purified rat brain farnesyl protein transferase. After incubation at 37° C. for 30 minutes, the reaction was terminated by diluting the reaction 2.5-fold with a stop buffer containing 1.5M magnesium acetate, 0.2M H3 PO4, 0.5% BSA, and strepavidin beads (Amersham) at a concentration of 1.3 mg/mL. After allowing the plate to settle for 30 minutes at room temperature, radioactivity was quantitated on a microBeta counter (model 1450, Wallec). Compounds of Formula I show IC50 values of 0.5 nM to 80 μM (see data table) in this assay and are thus valuable inhibitors of protein: farnesyl transferase enzyme which may be used in the medical treatment of tissue proliferative diseases, including cancer and restenosis.
row,Compound,IC50 [µM]
1,"COc1ccccc1CCCNC(=O)[C@H](Cc1ccc(OCc2ccccc2)cc1)NC(=O)[C@@H](Cc1c[nH]cn1)NS(=O)(=O)c1ccc(C)cc1 [5 (49), (4-MePh)SO2 --D--His--Tyr(OBn)--CONHCH2 CH2 CH2 --(2-MeO--Ph)]",2.9
2,"O=C(N[C@@H](Cc1c[nH]cn1)C(=O)N[C@@H](Cc1ccc(OCc2ccccc2)cc1)C(=O)NCCc1ccccc1)OCc1ccccc1 [Example 23, N-(2-Phenylethyl)-N60-[-N-[(phenylmethoxy)carbonyl]-L-histidyl]-O-(phenylmethyl)-L-tyrosinamide] (Cbz-His-Tyr(Bn)-NHPhenethyl)",1.9
3,"O=C(NC(Cc1cnc[nH]1)C(=O)NC(Cc1ccc(OCc2ccccc2)cc1)C(=O)NCCSCc1ccccc1)OCc1ccccc1 [5 (62), BnOCO--D--His--Tyr(OBn)CONHCH2 CH2 SBn]",1.5
4,"CCNC(=O)[C@H](COCc1ccccc1)NC(=O)[C@H](Cc1ccc(OCc2ccccc2)cc1)NC(=O)[C@@H](Cc1c[nH]cn1)NC(=O)OCc1ccccc1 [Example 12, N-Ethyl-Nα -[N-[N-[(Phenylmethoxy)carbonyl]-D-histidyl]-O-(phenylmethyl)-L-tyrosyl]-O-(phenylmethyl)-L-serinamide] (Cbz-[dH]-Tyr(Bn)-Ser(Bn)-NHEt)",0.028
5,"O=C(N[C@@H](Cc1c[nH]cn1)C(=O)N[C@@H](Cc1ccc(OCc2ccccc2)cc1)C(=O)NCCOCc1ccccc1)OCc1ccccc1 [Example 19, Nα -[-N-[(Phenylmethoxy)carbonyl]-L-histidyl]-O-(phenylmethyl)-N-[2-(phenylmethoxy)ethyl]-L-tyrosinamide]",0.31
6,"CN(CCOCc1ccccc1)C(=O)[C@H](Cc1ccc(OCc2ccccc2)cc1)NC(=O)[C@H](Cc1c[nH]cn1)NC(=O)OCc1ccccc1 [Example 29, Nα -[N-[(Phenylmethoxy)carbonyl]-L-histidyl]-O-(phenylmethyl)-N-methyl-N-[2-(phenylmethoxy)ethyl]-L-tyrosinamide]",3
7,"COC(=O)[C@H](COCc1ccccc1)NC(=O)[C@H](Cc1ccc(OCc2ccccc2)cc1)NC(=O)[C@H](Cc1c[nH]cn1)NC(=O)NCc1ccccc1 [Example 17, N-[O-(Phenylmethyl)-N[N-[[(Phenylmethyl)amino]-carbonyl]-L-histidyl]-L-tyrosyl]-O-(phenylmethyl)-serine, methyl ester] ({NHBn-CO}-His-Tyr(Bn)-Ser(Bn)-OMe)",0.039
8,"COC(=O)[C@H](COCc1ccccc1)NC(=O)[C@H](Cc1ccc(OCc2ccccc2)cc1)NC(=O)[C@H](Cc1c[nH]cn1)NC(=O)CCc1ccccc1 [Example 18, N-[N-[N-(1-Oxo-3-phenylpropyl)-L-histidyl]-O-(phenylmethyl)-L-tyrosyl]-O-(phenylmethyl)-L-serine. methyl ester] (Hydrocinnamoyl-His-Tyr(Bn)-Ser(Bn)-OMe)",0.82
9,"Cc1ccc(S(=O)(=O)N[C@@H](Cc2cnc[nH]2)C(=O)N[C@H](Cc2ccc(OCc3ccccc3)cc2)C(=O)N2CCN(Cc3ccccc3)CC2)cc1 (stereo in doubt) [Example 28, (S,R)-N-[1-(4-Benzyloxy-benzyl)-2-(4-benzyl-piperazin-1-yl)-2-oxo-ethyl]-3-(3H-imidazol-4-yl)-2-(toluene-4-sulfonylamino)-propionamide]",11
10,"O=C(Nc1cccc2ccccc12)N[C@H](Cc1c[nH]cn1)C(=O)N[C@@H](Cc1ccc(OCc2ccccc2)cc1)C(=O)NCCCCc1ccccc1 [5 (59), 1-napthyl-NHCO--D--His--Tyr(OBn)CONHCH2 CH2 CH2 CH2 Ph]",20
11,"CCOc1ccc(NC(=O)N[C@H](Cc2c[nH]cn2)C(=O)N[C@@H](Cc2ccc(OCc3ccccc3)cc2)C(=O)NCCOCc2ccccc2)cc1 [5 (61), (4-EtOPh)NHCO--D--His--Tyr(OBn)CONHCH2 CH2 OBn]",7.2
12,"COC(=O)[C@H](COCc1ccccc1)NC(=O)[C@H](Cc1ccc(-c2ccccc2)cc1)NC(=O)[C@H](Cc1c[nH]cn1)NC(=O)OCc1ccccc1 [Example 16, N-[4-Phenyl-N-[N-[(phenylmethoxy)carbonyl]-L-histidyl]-L-phenylalanyl]-O-(phenylmethyl)-L-serine, methyl ester] (Cbz-His-[Bip]-Ser(Bn)-OMe)",0.6
13,"O=C(N[C@H](Cc1cnc[nH]1)C(=O)N[C@@H](Cc1ccc(OCc2ccccc2)cc1)C(=O)NCCc1ccccc1)N[C@@H]1C[C@H]1c1ccccc1 [5 (31), (t-2-Ph-c-propyl)-NHCO--D--His--Tyr(OBn)CONHCH2 CH2 Ph]",0.76
14,"O=C(N[C@H](Cc1c[nH]cn1)C(=O)N[C@@H](Cc1ccc(OCc2ccccc2)cc1)C(=O)NCCCOc1ccccc1)OCc1ccccc1 [5 (23), BnOCO--D--His--Tyr(OBn)CONHCH2 CH2 CH2 OPh]",0.64
15,"O=C(Nc1cccc2ccccc12)N[C@H](Cc1c[nH]cn1)C(=O)N[C@@H](Cc1ccc(OCc2ccccc2)cc1)C(=O)NCCOCc1ccccc1 [5 (56), 1-napthyl-NHCO--D--His--Tyr(OBn)CONHCH2 CH2 OBn]",1.1
16,"COc1ccccc1CCCNC(=O)C(Cc1ccc(OCc2ccccc2)cc1)NC(=O)C(Cc1c[nH]cn1)NC(=O)Cc1ccccc1 [5 (69), PhCH2 CO--D--His--Tyr(OBn)CONH(CH2)3 --(2-MeO--Ph)]",0.48
17,"O=C(Cc1ccccc1)N[C@H](Cc1c[nH]cn1)C(=O)N[C@@H](Cc1ccc(OCc2ccccc2)cc1)C(=O)N1CCN(Cc2ccccc2)CC1 [5 (30), PhCH2 CO--D--His--Tyr(OBn)CO(4-Bn-piperazin-1-yl)]",73
18,"O=C(N[C@@H](Cc1c[nH]cn1)C(=O)N[C@@H](Cc1ccc(OCc2ccccc2)cc1)C(=O)N[C@@H](COCc1ccccc1)C(=O)O)OCc1ccccc1 [Example 7, N-[N-[N-[(Phenylmethoxy)carbonyl]-L-histidyl]-O-(phenylmethyl)-L-tyrosyl]-O-(phenylmethyl)-L-serine] (Cbz-His-Tyr(Bn)-Ser(Bn)-OH)",0.26
19,"COC(=O)[C@H](COCc1ccccc1)NC(=O)[C@H](Cc1ccc(OCc2ccccc2)cc1)NC(=O)[C@H](Cc1c[nH]cn1)NC(=O)OCc1ccccc1 [Example 6, N-[N-[N-[(Phenylmethoxy)carbonyl]-L-histidyl]-O-(phenylmethyl)-L-tyrosyl]-O-(phenylmethyl)-L-serine, methyl ester] (Cbz-His-Tyr(Bn)-Ser(Bn)-OMe)",0.42

# From patent US5830868A, “Substituted DI- and tripeptide inhibitors of protein: farnesyl transferase” (Warner-Lambert Company, priority 1996, dated 1998)
